Assays:
[1] = target: T1, RNA-directed RNA polymerase (Hepacivirus hominis, UniProt O39930); assay: Inhibition of Hepatitis C virus genotype 1b NS5B RNA-dependent-RNA polymerase assessed as reduction in viral replication after 72 hrs by indirect immunofluorescence assay; design: species or system Hepatitis C virus subtype 1b
[2] = target: T1, RNA-directed RNA polymerase; assay: Inhibition of Hepatitis C virus genotype 1b NS5B RNA-dependent-RNA polymerase; design: species or system Hepatitis C virus subtype 1b
[3] = Apparent clearance during terminal phase in Sprague-Dawley rat at 35 mg/kg, po administered via gavage by UPLC-MS analysis; assay type: ADME, organism-based; conditions: in vivo, read-out: CLz/F (converted)
[4] = Cmax in Sprague-Dawley rat at 35 mg/kg, po administered via gavage by UPLC-MS analysis; assay type: ADME, organism-based; design: dose 35 mg/kg, route oral; conditions: in vivo
[5] = Terminal half life in Sprague-Dawley rat at 35 mg/kg, po administered via gavage by UPLC-MS analysis; assay type: ADME, organism-based; conditions: in vivo, read-out: beta t1/2 (converted)
[6] = Apparent volume of distribution during terminal phase in Sprague-Dawley rat at 35 mg/kg, po administered via gavage by UPLC-MS analysis; assay type: ADME, organism-based; conditions: in vivo, read-out: Vz/F
[7] = MRT (0 to infinity) in Sprague-Dawley rat at 35 mg/kg, po administered via gavage by UPLC-MS analysis; assay type: ADME, organism-based; conditions: in vivo
[8] = AUC (0 to infinity) in Sprague-Dawley rat at 35 mg/kg, po administered via gavage by UPLC-MS analysis; assay type: ADME, organism-based; design: dose 35 mg/kg, route oral, time infinity; conditions: in vivo
[9] = Tmax in Sprague-Dawley rat at 35 mg/kg, po administered via gavage by UPLC-MS analysis; assay type: ADME, organism-based; conditions: in vivo
[10] = target: RNA-directed RNA polymerase (Hepacivirus hominis) (UniProt O39930); assay: Potency index, ratio of sofosbuvir EC50 to test compound EC50 for inhibition of Hepatitis C virus genotype 1b NS5B RNA-dependent-RNA polymerase assessed as reduction in viral replication; conditions: Hepatitis C virus subtype 1b
Chain of RNA-directed RNA polymerase (Hepacivirus hominis) (O39930 1-591): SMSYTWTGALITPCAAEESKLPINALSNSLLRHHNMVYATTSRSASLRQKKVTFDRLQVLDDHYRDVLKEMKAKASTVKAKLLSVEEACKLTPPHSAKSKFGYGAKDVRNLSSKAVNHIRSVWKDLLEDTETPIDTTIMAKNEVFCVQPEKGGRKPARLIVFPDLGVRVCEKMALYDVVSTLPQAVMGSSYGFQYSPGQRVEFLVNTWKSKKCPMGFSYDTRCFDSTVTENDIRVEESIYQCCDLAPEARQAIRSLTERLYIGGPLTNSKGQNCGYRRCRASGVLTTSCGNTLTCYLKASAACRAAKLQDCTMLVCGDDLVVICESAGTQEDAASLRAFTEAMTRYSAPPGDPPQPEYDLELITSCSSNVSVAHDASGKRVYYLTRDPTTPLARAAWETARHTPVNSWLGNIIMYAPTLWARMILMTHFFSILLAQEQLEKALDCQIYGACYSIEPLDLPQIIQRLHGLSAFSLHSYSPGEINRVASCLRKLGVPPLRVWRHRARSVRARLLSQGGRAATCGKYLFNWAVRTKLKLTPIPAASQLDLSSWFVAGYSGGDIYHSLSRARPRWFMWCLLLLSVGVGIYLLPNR

T1 sequence (O39930 whole entry): as the sequence (O39930 1-591) above

Compound | EC50 [1] | other results
Fc1ccccc1-c1nc2ccn(Cc3ccc(-c4ccc(C(F)(F)F)cc4C(F)(F)F)nn3)cc-2n1 [TEGOBUVIR] |  | EC50 [2]: 2.9 nM
Fc1ccccc1-c1nc2ccn(Cc3cn(-c4cc(C(F)(F)F)cc(C(F)(F)F)c4)nn3)cc-2n1 | Not Active | 
Fc1ccccc1-c1nc2ccn(Cc3cn(Cc4nc5ccccc5n4-c4cccc(C(F)(F)F)c4)nn3)cc-2n1 | Not Active | 
COc1ccc(-n2cc(Cn3ccc4nc(-c5ccccc5F)nc-4c3)nn2)cc1 |  | CL/F [3]: 8.33 mL/min/kg; Cmax [4]: 22300 ng/mL; half-life [5]: 2.88 h; Vd/F [6]: 2.12 L/kg; MRT inf [7]: 2.18 h; AUC(0-inf) [8]: 72500 ng·h/mL; Tmax [9]: 1.33 h
Fc1ccccc1-c1nc2ccn(Cc3cn(-c4ccccc4)nn3)cc-2n1 |  | Ratio EC50 [10]: 3
Cc1cc(C)n2cc(Cn3ccc4nc(-c5ccccc5F)nc-4c3)nc2n1 | Not Active | 
Fc1ccccc1-c1nc2ccn(Cc3nc4ccccc4n3-c3cccc(C(F)(F)F)c3)cc-2n1 | Not Active | 
Cc1ccc(-n2c(Cn3ccc4nc(-c5ccccc5F)nc-4c3)nc3ccccc32)cc1 | Not Active | 

Further lines, with some results ahead:

EC50 [1] | Compound | other results
Not Active | Fc1ccccc1-c1nc2ccn(Cc3nc4ccccc4n3-c3ccccc3)cc-2n1 | 
Not Active | Fc1ccccc1-c1nc2ccn(Cc3cn(Cc4nc5ccccc5n4-c4ccccc4)nn3)cc-2n1 | 
Not Active | Fc1ccccc1-c1nc2ccn(Cc3cn4cccnc4n3)cc-2n1 | 
Not Active | Cc1cc(C)n2nc(Cn3ccc4nc(-c5ccccc5F)nc-4c3)nc2n1 | 
Not Active | Fc1ccccc1-c1nc2ccn(Cc3nc4ccccc4n3-c3cccc(Cl)c3)cc-2n1 | 

Source: ChEMBL document CHEMBL4219241, “Design, synthesis, and structure-activity relationships of novel imidazo[4,5-c]pyridine derivatives as potent non-nucleoside inhibitors of hepatitis C virus NS5B” (Bioorg Med Chem, 2018)
